# Laboratory results reported in PMC10511752, “Natural product-inspired synthesis of coumarin–chalcone hybrids as potential anti-breast cancer agents” (Frontiers in Pharmacology, 2023).
# What was measured:
# tubulin = test system: tubulin; parameters: method as in Miller et al., 1997; conditions: ref Miller et al., 1997; read-out: IC50, inhibition of polymerization of tubulin; cited from earlier work
# [1] = test system: MCF-7 (breast cancer) cells; experiment: MTT cell proliferation assay, MCF-7; type: cell-based; conditions: Homo sapiens, MCF7, MCF-7 (ER +ve), 48 h, read-out: IC50 values (mean ± SEM) MCF-7
# Experimental: (§3) MCF-7, MDA-MB231, and HEK293 cell lines were purchased from ATCC (Manassas, VA, United States). […] They were maintained in Dulbecco’s modified Eagle medium (DMEM) supplemented with 10% fetal bovine serum (FBS). Cells were cultured at 37°C and 5% CO2. Before the experiments, cells were cultured in phenol red-free DMEM supplemented with 10% charcoal stripped fetal bovine serum.
# [2] = test system: MDA-MB-231 (breast cancer) cells; experiment: MTT cell proliferation assay, MDA-MB-231; type: cell-based; conditions: Homo sapiens, MDA-MB-231 (ER -ve), 48 h, read-out: IC50 values (mean ± SEM) MDA-MB-231
# Experimental: as §3
# [3] = test system: Ishikawa (endometrial cancer) cells; experiment: MTT cell proliferation assay, Ishikawa; type: cell-based; conditions: Homo sapiens, 48 h, read-out: IC50 values (mean ± SEM) Ishikawa
# Experimental: (§1) We conducted an in vitro MTT assay to evaluate the anti-cancer activity of the synthesized neo-tanshinlactone–chalcone hybrid compounds, 26–37, against four human cancer cell lines, namely, MCF-7 (breast cancer), MDA-MB-231 (breast cancer), Ishikawa (endometrial cancer), and HeLa (cervical cancer). The toxicity of the hybrid molecules on the normal human embryonic kidney cell line HEK-293 was also evaluated.
# MCF-7, MDA-MB231, and HEK293 cell lines were purchased from ATCC (Manassas, VA, United States). Ishikawa cell lines were obtained from the European Collection of Cell Cultures. They were maintained in Dulbecco’s modified Eagle medium (DMEM) supplemented with 10% fetal bovine serum (FBS). Cells were cultured at 37°C and 5% CO2. Before the experiments, cells were cultured in phenol red-free DMEM supplemented with 10% charcoal stripped fetal bovine serum.
# (§2) The synthesized hybrid compounds were tested for their anti-cancer activity using the MTT reduction assay on 2.5 × 10^3 cells per well that were seeded in 100 µL DMEM supplemented with 10% FBS in each well of 96-well microculture plates. After seeding, the cells were incubated for 24 h at 37°C in a CO2 incubator. The required concentrations of the compounds were achieved by diluting the solutions in the culture medium. The media was removed from the wells after 48 h, and 100 µL of MTT (0.5 mg/mL) was added to each well. The plates were then incubated for an additional 3 h. After carefully removing the supernatant from each well, the formazan crystals were dissolved in 100 µL of DMSO. The absorbance was then recorded at a wavelength of 540 nm ([Saquib et al., 2021]; [Gupta et al., 2022]; [Iqbal et al., 2023])
# [4] = test system: HeLa (cervical cancer) cells; experiment: MTT cell proliferation assay, HeLa; type: cell-based; conditions: Homo sapiens, 48 h, read-out: IC50 values (mean ± SEM) HeLa
# Experimental: as §1, §2
# [5] = test system: normal human embryonic kidney cell line HEK-293; experiment: MTT assay, toxicity on normal cell line HEK-293; type: cell-based; conditions: HEK293, normal HEK-293 cells (toxicity), 48 h, read-out: IC50 values (mean ± SEM) HEK-293
# Experimental: as §3
Structure (SMILES),IC50 [1] [µM],IC50 [2] [µM],IC50 [3] [µM],IC50 [4] [µM],melting point [°C],IC50 (tubulin) [µM],IC50 [5] [µM]
COc1cc2c(ccc1=O)[C@H]1CC[C@]3(C)[C@@H](O)CC[C@H]3[C@@H]1CC2 [2-Methoxyestradiol–colchicine hybrid A],,,,,,2.1,
O=C(/C=C/c1cc(=O)oc2c1ccc1ccccc12)c1ccc(Cl)cc1 [Compound 34],> 20,> 20,> 20,> 20,,,> 20
"COc1cc(OC)cc(C(=O)/C=C/c2cc(=O)oc3c2ccc2c(OC)cccc23)c1 [Compound 30, (E)-4-(3-(3,5-Dimethoxyphenyl)-3-oxoprop-1-en-1-yl)-7-methoxy-2H-benzo[h]chromen-2-one]",6.8 ± 1.48,8.5 ± 1.12,,,,,> 20
"COc1cc2c(cc1O)CC[C@@H]1[C@@H]2CC[C@]2(C)[C@@H](O)CC[C@@H]12 [2-methoxyestradiol (2-ME), 2-methoxyestradiol]",,,,,,14.2,
"COc1ccc(C(=O)/C=C/c2cc(=O)oc3c2ccc2c(OC)cccc23)cc1 [Compound 28, (E)-7-Methoxy-4-(3-(4-methoxyphenyl)-3-oxoprop-1-enyl)-2H-benzo[h]chromen-2-one]",18.6 ± 2.3,> 20,> 20,> 20,236 to 237,,> 20
COc1cccc2c1ccc1c(/C=C/C(=O)c3ccc(Cl)cc3)cc(=O)oc12 [Compound 35],> 20,> 20,> 20,> 20,,,> 20

# Further lines, with some results ahead:
IC50 [1] [µM],IC50 [2] [µM],IC50 [3] [µM],IC50 [4] [µM],melting point [°C],Structure (SMILES),IC50 (tubulin) [µM],IC50 [5] [µM]
> 20,> 20,19.2 ± 3.12,16.8 ± 3.14,,O=C(/C=C/c1cc(=O)oc2c1ccc1ccccc12)c1ccc(Cl)c(Cl)c1 [Compound 36],,> 20
> 20,> 20,> 20,> 20,180 to 182,"COc1cccc2c1ccc1c(/C=C/C(=O)c3ccccc3)cc(=O)oc12 [Compound 29, (E)-7-Methoxy-4-(3-oxo-3-phenylprop-1-en-1-yl)-2H-benzo[h]chromen-2-one]",,> 20
> 20,> 20,> 20,> 20,245 to 246,"O=C(/C=C/c1cc(=O)oc2c1ccc1ccccc12)c1ccccc1 [Compound 32, (E)-4-(3-Oxo-3-phenylprop-1-enyl)-2H-benzo[h]chromen-2-one]",,> 20
17.2 ± 1.75,16.6 ± 1.25,> 20,> 20,272 to 273,"COc1cc(OC)cc(C(=O)/C=C/c2cc(=O)oc3c2ccc2ccccc23)c1 [Compound 26, (E)-4-(3-(3,5-Dimethoxyphenyl)-3-oxoprop-1-en-1-yl)-2H-benzo[h]chromen-2-one]",,> 20
> 20,> 20,18.6 ± 2.56,17.2 ± 2.88,,COc1cccc2c1ccc1c(/C=C/C(=O)c3ccc(Cl)c(Cl)c3)cc(=O)oc12 [Compound 37],,> 20
> 20,> 20,17.4 ± 2.72,> 20,,"COc1ccc(C(=O)/C=C/c2cc(=O)oc3c2ccc2ccccc23)cc1 [Compound 27, (E)-4-(3-(4-Methoxyphenyl)-3-oxoprop-1-enyl)-2H-benzo[h]chromen-2-one]",,> 20
14.4 ± 1.68,15.7 ± 1.01,> 20,> 20,,"COc1cc(C(=O)/C=C/c2cc(=O)oc3c2ccc2ccccc23)cc(OC)c1OC [Compound 31, (E)-4-(3-Oxo-3-(3,4,5-trimethoxyphenyl)prop-1-enyl)-2H-benzo[h]chromen-2-one]",,> 20
16.3 ± 2.3,> 20,> 20,> 20,> 260,"COc1cc(C(=O)/C=C/c2cc(=O)oc3c2ccc2c(OC)cccc23)cc(OC)c1OC [Compound 33, (E)-7-Methoxy-4-(3-oxo-3-(3,4,5-trimethoxyphenyl)prop-1-enyl)-2H-benzo[h] chromen-2-one]",,> 20
